# Test results: patent US10494384B2, “Urea peptoid boric acid compound, pharmaceutical composition thereof, preparation method therefor, and uses thereof” (Peking University, priority 2015, dated 2019)
# Like-named read-outs stand apart in the source and are kept apart here.
# Key:
# HL-60 = assay: anti-tumor activity in vitro (IC50), MTT; format: cell-based; settings: Homo sapiens, 72 h
# Method: (§1) Cancer cells were cultured in vitro. When cell growth reached logarithmic phase, the cells were collected and centrifuged at 1000 rpm for 5 min, before the supernate was removed and the cells were suspended in a moderate amount of medium, and then the concentration of cell was adjusted to 3.5×10^4/mL. The cell suspension was added into a 96-well plate with 100 μL per well and cultured in a cell incubator (37° C., 5% CO2) for 24 h. Then test drugs of different end concentrations were added, and the negative control group was added DMSO (end concentration was 0.5%), while each group afforded three repetitive holes. After cultivation for another 72 h in the cell incubator, a solution containing 5 mg/ml MTT (20 μL) was added into each well and the 96-well plate was placed at 37° C. for 3 h. To each well was added 150 μL DMSO, after oscillation in a shaking table for 5 min, the optical density (OD) values at 492 nm/620 nm were measured. IC50 values were calculated by Prism Graphpad statistical software.
# HepG2 liver cancer cells = assay: anti-tumor activity in vitro (IC50), MTT; format: cell-based; settings: Homo sapiens, 72 h
# Method: as §1
# [1] = tested on: MGC803 stomach cancer cells; assay: anti-tumor activity in vitro (IC50), MTT; format: cell-based; settings: Homo sapiens, MGC-803, 72 h
# Method: as §1
# Hela = assay: anti-tumor activity in vitro (IC50), MTT; format: cell-based; settings: Homo sapiens, 72 h
# Method: as §1
# [2] = tested on: Hela, human cervical carcinoma; assay: preliminary anti-tumor screening in vitro, MTT method; format: cell-based; settings: read-out: inhibition rates (%) Hela
# Summary of the method: (§2)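 Inhibition rates measured at 0.1, 1 or 10 μM compound; cell growth read by MTT for Hela, SRB for BGC-823, MCF-7 and A549.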
# BGC-823, liver cancer = assay: preliminary anti-tumor screening in vitro, SRB method; format: cell-based; settings: Homo sapiens, read-out: inhibition rates (%) BGC-823
# Summary of the method: as §2
# A549, human lung cancer = assay: as above; format: cell-based; settings: read-out: inhibition rates (%) A549
# Summary of the method: as §2
# MCF-7, breast cancer = assay: as above; format: cell-based; settings: Homo sapiens, read-out: inhibition rates (%) MCF-7; for inhibition at 0.1 µM: MCF7, 0.1 μM; for inhibition at 1 µM: MCF7, 1 μM; for inhibition at 10 µM: MCF7, 10 μM
# Summary of the method: as §2
# 95D = assay: anti-tumor activity in vitro (IC50), MTT; format: cell-based; settings: Homo sapiens, 72 h
# Method: as §1
# MDA-MB-231 = assay: anti-tumor activity in vitro (IC50), MTT; format: cell-based; settings: Homo sapiens, 72 h
# Method: as §1
# BEL7404 = assay: anti-tumor activity in vitro (IC50), MTT; format: cell-based; settings: Homo sapiens, BEL-7404, 72 h
# Method: as §1
# A549 = assay: anti-tumor activity in vitro (IC50), MTT; format: cell-based; settings: Homo sapiens, 72 h
# Method: as §1
# HCT116 = assay: anti-tumor activity in vitro (IC50), MTT; format: cell-based; settings: Homo sapiens, HCT-116, 72 h
# Method: as §1
# MKN45 = assay: anti-tumor activity in vitro (IC50), MTT; format: cell-based; settings: Homo sapiens, MKN-45, 72 h
# Method: as §1
# SW1990 = assay: anti-tumor activity in vitro (IC50), MTT; format: cell-based; settings: Homo sapiens, 72 h
# Method: as §1
# SKOV3 = assay: anti-tumor activity in vitro (IC50), MTT; format: cell-based; settings: Homo sapiens, SK-OV-3, 72 h
# Method: as §1
# [3] = molecular target: T1, 20S proteasome extracted from rat liver (PGPH) (Rattus norvegicus, UniProt P28073+Q9JHW0); assay: inhibition of 20S proteasome, PGPH activity (fluorescent peptide); format: biochemical; settings: rat liver 20S proteasome, 37° C., 1 h, read-out: inhibition rates (%) PGPH
# T1 construct: 20S proteasome extracted from rat liver; from tissue; host or cells: rat liver
# Method: (§3) 1 μg of 20S proteasome extracted from rat liver was incubated with a 100 μL solution containing various concentrations of the present compounds, 50 μM fluorescent peptides and 20 mM Tris-HCl at 37° C. for 1 h, respectively. […] 0.1% DMSO was used as a solvent control. Compared with the fluorescence of solvent control, an inhibition rate or IC50 value was calculated.
# [4] = molecular target: T2, 20S proteasome extracted from rat liver (CT-L) (Rattus norvegicus, UniProt P18421+P28075); assay: inhibition of 20S proteasome, CT-L activity (fluorescent peptide); format: biochemical; settings: rat liver 20S proteasome, 37° C., 1 h, read-out: inhibition rates (%) CT-L
# T2 construct: 20S proteasome extracted from rat liver; from tissue; host or cells: rat liver
# Method: as §3
# [5] = molecular target: T3, 20S proteasome extracted from rat liver (T-L) (Rattus norvegicus, UniProt P40112+Q9JHW0); assay: inhibition of 20S proteasome, T-L activity (fluorescent peptide); format: biochemical; settings: rat liver 20S proteasome, 37° C., 1 h, read-out: inhibition rates (%) T-L
# T3 construct: 20S proteasome extracted from rat liver; from tissue; host or cells: rat liver
# Method: as §3
# [6] = liver cancer cells, read-out: IC50 (μM) HepG2
# [7] = stomach cancer cells, MTT, read-out: IC50 (μM) MGC803
Compound,IC50 (HL-60),IC50 (HepG2 liver cancer cells; read-out: IC50 HepG2),IC50 (HepG2 liver cancer cells; [6]),"IC50 ([1]; MTT, read-out: IC50 MGC803)","IC50 [1, 7]",IC50 (Hela),inhibition at 0.1 µM [2],inhibition at 1 µM [2],inhibition at 10 µM [2],"inhibition at 0.1 µM (BGC-823, liver cancer)","inhibition at 1 µM (BGC-823, liver cancer)","inhibition at 10 µM (BGC-823, liver cancer)","inhibition at 0.1 µM (A549, human lung cancer)","inhibition at 1 µM (A549, human lung cancer)","inhibition at 10 µM (A549, human lung cancer)","inhibition at 0.1 µM (MCF-7, breast cancer)","inhibition at 1 µM (MCF-7, breast cancer)","inhibition at 10 µM (MCF-7, breast cancer)",further results
"CC(C)C[C@H](NC(=O)[C@H](Cc1ccccc1)NC(=O)c1cnccn1)B(O)O [positive control, bortezomib, reference compound]",7.6 nM,0.00161 µM,0.0366 µM,0.00654 µM,0.00578 µM,224 nM,41.6%,43.2%,47.3%,41%,43.6%,46.8%,59.9%,63.8%,66.1%,27.6%,32.8%,40.7%,"IC50 ([1]; MGC80-3, MTT, value ± spread, read-out: IC50 (μM), growth of stomach cancer cells (MGC80-3)): 0.0057 ± 0.001 µM"
"CC(C)C[C@H](NC(=O)[C@H](Cc1ccccc1)NC(=O)NCc1cccc(Cl)c1Cl)B(O)O [Example 20, N-L-phenylalanyl-L-leucine borate-N′-(2,3-dichloro-benzylamine)-urea]",27 nM,0.026 µM,0.0378 µM,0.0175 µM,0.00733 µM,117 nM,17.4%,42.5%,75.7%,50%,47.1%,50.2%,65%,68.2%,69.3%,32.2%,42.2%,45.5%,IC50 (95D): 41 nM; IC50 (MDA-MB-231): 25.1 nM; IC50 (BEL7404): 42.2 nM; IC50 (A549): 1020 nM; IC50 (HCT116): 23 nM; IC50 (MKN45): 20.1 nM; IC50 (SW1990): 80.3 nM; IC50 (SKOV3): 46.3 nM; inhibition at 0.2 µM ([3]; 0.2 μM): -23%; inhibition at 2 µM ([3]; 2 μM): -26.6%; inhibition at 20 µM ([3]; 20 μM): -28.9%; melting point: 119 to 122 °C; inhibition at 0.2 µM ([4]; 0.2 μM): 91.9%; inhibition at 2 µM ([4]; 2 μM): 96.5%; inhibition at 20 µM ([4]; 20 μM): 97%; inhibition at 0.2 µM ([5]; 0.2 μM): 35.6%; inhibition at 2 µM ([5]; 2 μM): 83.7%; inhibition at 20 µM ([5]; 20 μM): 92.6%
